Results: PubChem BioAssay (NCI)
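The compound was tested at five concentrations on cells cultured in 96-well plates, with a 48-hour exposure period. TGI is the concentration that stops growth completely.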

Columns and labels:
Test in all cases: inhibition of tumour cell growth, NCI panel, 48 h
SN12C renal = system: SN12C renal
786-0 renal = system: 786-0 renal
IGROV1 ovarian = system: IGROV1 ovarian
UACC-62 melanoma = system: UACC-62 melanoma
PC-3 prostate = system: PC-3 prostate
HS 578T breast = system: HS 578T breast
A498 renal = system: A498 renal
TK-10 renal = system: TK-10 renal
U251 CNS = system: U251 CNS
UACC-257 melanoma = system: UACC-257 melanoma
SW-620 colon = system: SW-620 colon
OVCAR-3 ovarian = system: OVCAR-3 ovarian
T-47D breast = system: T-47D breast
SF-295 CNS = system: SF-295 CNS
MALME-3M melanoma = system: MALME-3M melanoma

SMILES | TGI (SN12C renal) [µM] | TGI (786-0 renal) [µM] | TGI (IGROV1 ovarian) [µM] | TGI (UACC-62 melanoma) [µM] | TGI (PC-3 prostate) [µM] | TGI (HS 578T breast) [µM] | TGI (A498 renal) [µM] | TGI (TK-10 renal) [µM] | TGI (U251 CNS) [µM] | TGI (UACC-257 melanoma) [µM] | TGI (SW-620 colon) [µM] | TGI (OVCAR-3 ovarian) [µM] | TGI (T-47D breast) [µM] | TGI (SF-295 CNS) [µM] | TGI (MALME-3M melanoma) [µM]
N#Cc1nc(-c2ccccc2O)oc1N | > 100 | > 100 | > 100 | > 100 | > 100 | > 100 | > 100 | > 100 | > 100 | > 100 | > 100 | – | – | – | –
CC(=O)O[C@@H]1[C@@H](C)[C@]2(CC(c3ccoc3)OC2O)C2CCC3O[C@]3(C)[C@]2(C)[C@@H]1OC(C)=O (some centres undefined) | > 100 | 39.9 | > 100 | > 100 | > 100 | > 100 | > 100 | > 100 | > 100 | > 100 | > 100 | > 100 | 86.8 | > 100 | –
OC1=CN=C(C2CC2)Oc2ccccc21 | > 100 | > 100 | > 100 | > 100 | – | – | > 100 | > 100 | > 100 | > 100 | > 100 | > 100 | – | > 100 | > 100
Nc1nc(NNc2ccccc2F)cc(=O)[nH]1 | > 100 | > 100 | > 100 | – | > 100 | > 100 | > 100 | > 100 | > 100 | > 100 | > 100 | > 100 | – | > 100 | > 100
S=C1NCCN1C(=S)NC1CCCCC1 | > 100 | > 100 | > 100 | 96.5 | – | 99.2 | 38.7 | 93.1 | > 100 | 63.3 | > 100 | > 100 | > 100 | > 100 | 64.9
CC(C)[Si](Oc1cc2c3c(ccc2c(O)c1[C@@H](C)CO[Si](C)(C)C(C)(C)C)C(C)(C)CCC3)(C(C)C)C(C)C | > 100 | > 100 | > 100 | > 100 | > 100 | > 100 | > 100 | > 100 | > 100 | > 100 | > 100 | > 100 | – | > 100 | > 100
Cc1ccc(S(=O)(=O)C(C#N)c2nc3ccccc3nc2N2CCOCC2)cc1 (centres undefined) | 96.4 | > 100 | 59.1 | 28.5 | – | – | > 100 | > 100 | 35.8 | > 100 | > 100 | 91.6 | – | – | 63.5
C=CC(Br)(CBr)CCC(Br)C(C)(C)Br (centres undefined) | 29.7 | 25.6 | 28.5 | 24.6 | – | – | – | 30.3 | 27.6 | 27.6 | 26.6 | – | – | 16 | 30.4
Cc1no[n+]([O-])c1/C=N/NS(=O)(=O)c1ccccc1 | > 100 | > 100 | > 100 | > 100 | – | – | > 100 | > 100 | > 100 | – | > 100 | > 100 | – | – | > 100
O=C(/C=C/c1cc(F)ccc1F)OCCc1ccccc1 | – | > 100 | > 100 | > 100 | > 100 | > 100 | > 100 | > 100 | > 100 | > 100 | > 100 | – | – | – | > 100
COC(=O)C(=O)c1cc2ccccc2n1S(=O)(=O)c1ccccc1 | > 100 | > 100 | > 100 | > 100 | > 100 | – | > 100 | > 100 | > 100 | > 100 | > 100 | > 100 | > 100 | > 100 | > 100
O=C(Nc1ccccc1)c1cc2c(cc1Cl)SC(NNCCO)=NS2(=O)=O | – | > 100 | > 100 | > 100 | > 100 | > 100 | > 100 | > 100 | > 100 | > 100 | > 100 | – | > 100 | > 100 | –
O=C(OCC(Cl)(Cl)Cl)N1CC[C@@H](C2CCCCC2)C1 | > 100 | 43 | > 100 | 85.5 | 46.3 | – | – | > 100 | 18.9 | > 100 | – | 32.2 | > 100 | 38.9 | –
CSC1=N/C(=C\c2ccccc2)C(=O)N1CN1CCOCC1 | > 100 | > 100 | > 100 | > 100 | > 100 | > 100 | > 100 | > 100 | > 100 | – | > 100 | > 100 | – | > 100 | > 100
CCOC(=O)c1ncn2c1[nH]c(=O)c1ccccc12 | > 100 | > 100 | > 100 | > 100 | – | – | – | > 100 | > 100 | – | > 100 | > 100 | – | > 100 | > 100
CC(=O)C(CN(C)Cc1ccccc1)C(c1ccccc1)c1c(O)c2ccccc2oc1=O (centres undefined) | > 100 | > 100 | > 100 | > 100 | – | – | > 100 | > 100 | > 100 | > 100 | > 100 | – | – | > 100 | > 100
C[N+](C)(C)CC(=O)N/N=C/c1oc(-c2cccc([N+](=O)[O-])c2)c(-c2cccc([N+](=O)[O-])c2)c1[N+](=O)[O-] | > 100 | > 100 | > 100 | > 100 | – | – | > 100 | > 100 | – | > 100 | > 100 | – | – | – | > 100
COc1ccc(C(=O)/C=C/c2ccc(OCC#N)cc2)cc1OC | 32.3 | 86.7 | > 100 | 36.7 | – | > 100 | – | 70 | 29.6 | – | 23.4 | 49.1 | 28.8 | – | 38.8
CCOC(=O)C1=COC(C)(C)CC1=O | > 100 | > 100 | – | > 100 | > 100 | > 100 | > 100 | > 100 | > 100 | > 100 | > 100 | > 100 | > 100 | > 100 | –
